Laboratory results: US12606561B2, “Substituted pyrazolo[1,5-a][1,3,5]triazines as CDK inhibitors” (QURIENT CO., LTD., priority 2018, dated 2026)

What was measured:
CDK1/Cyclin B = biological target: T1, CDK1/Cyclin B (Homo sapiens, UniProt P06493); experiment: Enzymatic assay for CDK1 (LANCE Ultra kinase assay, FRET based); format: biochemical; details: ATP at Km; read-out: CDK1 enzymatic activity IC50
T1 construct: purchased Invitrogen PR4768C
Method in brief: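 TR-FRET (LANCE Ultra) kinase assays with a ULight-labelled peptide substrate and a Europium-labelled anti-phospho antibody. ATP was set at its Km for each kinase. Inhibition was measured on purified CDK/cyclin complexes: CDK7/Cyclin H/MNAT1 and CDK1/Cyclin B.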

CDK5/p25 = biological target: T2, CDK5/p25 (Homo sapiens, UniProt Q00535); experiment: Enzymatic assay for CDK5 (LANCE Ultra kinase assay, FRET based); format: biochemical; details: ATP at Km
T2 construct: purchased Invitrogen PR8543B
T2 sequence (Q00535 whole entry): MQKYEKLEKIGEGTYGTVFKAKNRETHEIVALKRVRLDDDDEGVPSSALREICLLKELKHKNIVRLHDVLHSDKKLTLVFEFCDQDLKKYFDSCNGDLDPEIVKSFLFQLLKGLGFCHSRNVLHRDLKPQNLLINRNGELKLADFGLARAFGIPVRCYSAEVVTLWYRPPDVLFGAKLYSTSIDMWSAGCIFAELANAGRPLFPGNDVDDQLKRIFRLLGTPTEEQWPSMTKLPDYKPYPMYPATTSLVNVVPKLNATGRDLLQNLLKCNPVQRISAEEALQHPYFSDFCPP
T2 sequence (Q15078 99-307 partner limits assumed): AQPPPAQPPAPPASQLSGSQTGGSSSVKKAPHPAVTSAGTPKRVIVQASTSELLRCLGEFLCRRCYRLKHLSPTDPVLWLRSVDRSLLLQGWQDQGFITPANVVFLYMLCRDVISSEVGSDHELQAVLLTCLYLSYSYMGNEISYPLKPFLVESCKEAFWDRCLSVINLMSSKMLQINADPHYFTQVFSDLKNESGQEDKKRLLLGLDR
Method in brief: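 Compounds tested as 8 doses in 4-fold steps against CDK2/Cyclin A ([…]) or CDK5/p25 ([…]), with ATP at its Km and 68 nM ULight-MBP substrate. After 60 min at 23° C., EDTA plus Eu-labelled anti-phospho-MBP added; TR-FRET (615/665 nm) read after another 60 min.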

H460 = experiment: Cellular H460 viability assay (CellTiter-Glo, 72 hours); format: cell-based; details: Homo sapiens, NCI-H460; H460 cells
Experimental: All cell lines were routinely tested for mycoplasma.
To effect of the CDK7 inhibitor to inhibit the growth of target cancer cells, viability assay were conducted a 72 hour time period. Briefly, the candidate cell line was plated in 96 well plate at the following density of cells respectively. 1×10^4 cells/well for MV4-11, 5×10^3 for H460 and OVCAR-3, and 1×10^3 for A2780. […] DMSO solvent without compound served as a control and final DMSO concentration lest than 0.1%. After 72 hours of incubation at 37° C., 5% CO2 incubator, cells were analyzed for the viability using the CellTiter-Glo Luminescent Cell Viability Assay (Promega, Cat #G7570). All viability assays were performed in duplicate and Luminescence was read using an Envision (Perkin Elmer, USA). Data was analyzed using XLfit software.

[1] = biological target: 28 CDKs family protein kinases (Homo sapiens, UniProt Q00535); experiment: In vitro IC50 profile for CDKs family kinase (33PanQinase Activity Assay, ProQinase); format: biochemical; parameters: purchased ProQinase GmbH; host or cells: Sf9 insect cells or E. coli; details: CDK5/p35NCK; read-out: CDK7 selectivity profile in CDKs family, IC50
28 CDKs family protein kinases, sequence (Q00535 whole entry): as the sequence (Q00535 whole entry) above
28 CDKs family protein kinases, sequence (Q15078 whole entry partner): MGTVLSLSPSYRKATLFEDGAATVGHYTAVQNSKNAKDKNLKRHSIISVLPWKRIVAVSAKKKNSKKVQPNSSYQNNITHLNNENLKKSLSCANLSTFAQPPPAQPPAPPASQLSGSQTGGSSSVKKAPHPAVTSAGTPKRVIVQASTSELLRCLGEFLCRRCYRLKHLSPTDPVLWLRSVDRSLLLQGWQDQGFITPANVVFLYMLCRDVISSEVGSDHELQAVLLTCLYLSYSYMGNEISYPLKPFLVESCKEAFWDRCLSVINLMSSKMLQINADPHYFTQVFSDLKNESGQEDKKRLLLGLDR
Experimental: The IC50 profile of compound 11 was determined using 28 CDKs family protein kinases through ProQinase GmbH (Freiburg, Germany). All the protocol and materials had been provided by ProQinase GmbH. Briefly, in the process, 90 μl H2O were added to each well of a compound dilution plate. To minimize potential precipitation, the H2O was added to the plate only a few minutes before the transfer of the compound solutions into the assay plates. The plate was shaken thoroughly, resulting in a “compound dilution plate/10% DMSO”. The compound dilution plate(s) were discarded at the end of the working day. For the assays (see below), 5 μl solution from each well of the compound dilution plate were transferred into the assay plates. The final volume of the assay was 50 μl. […] Kinases from external vendors, Carna Biosciences Inc.; Invitrogen Corp.; and Millipore Corp., were expressed, purified and quality-controlled by virtue of the vendors readings. […] Incorporation of ^33Pi was determined with a microplate scintillation counter (Microbeta, Wallac). […] The residual activity (in %) for each well of a particular plate was calculated by using the following formula: Res. Activity (%)=100×[(cpm of compound−low control)/(high control−low control)].

T1 sequence (P06493 whole entry): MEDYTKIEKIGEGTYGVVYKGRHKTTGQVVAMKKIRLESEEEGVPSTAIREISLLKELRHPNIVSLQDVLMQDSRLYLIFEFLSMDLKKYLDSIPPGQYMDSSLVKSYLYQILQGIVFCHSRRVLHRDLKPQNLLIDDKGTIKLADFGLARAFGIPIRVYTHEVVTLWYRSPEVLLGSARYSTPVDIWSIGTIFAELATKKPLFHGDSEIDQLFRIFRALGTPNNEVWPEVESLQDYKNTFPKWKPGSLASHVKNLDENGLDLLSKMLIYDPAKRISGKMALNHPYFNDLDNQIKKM
T1 sequence (P14635 whole entry partner): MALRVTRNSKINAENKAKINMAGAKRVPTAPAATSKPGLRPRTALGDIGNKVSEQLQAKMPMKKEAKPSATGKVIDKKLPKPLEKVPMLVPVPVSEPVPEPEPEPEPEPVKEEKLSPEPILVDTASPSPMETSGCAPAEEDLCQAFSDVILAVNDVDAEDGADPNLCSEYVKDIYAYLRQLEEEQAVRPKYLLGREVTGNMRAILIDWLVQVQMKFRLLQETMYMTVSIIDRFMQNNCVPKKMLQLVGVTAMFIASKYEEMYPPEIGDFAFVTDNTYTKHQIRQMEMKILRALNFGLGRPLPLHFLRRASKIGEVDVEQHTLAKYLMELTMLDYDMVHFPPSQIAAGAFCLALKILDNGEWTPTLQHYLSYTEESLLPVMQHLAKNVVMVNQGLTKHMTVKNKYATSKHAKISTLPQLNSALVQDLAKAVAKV

CC(C)c1cnn2c(NCc3ccccc3-c3nccc4cc(NC(=O)/C=C/CN(C)C)ccc34)nc(N3CCC(N)CC3)nc12 [Compound 11]
IC50 (CDK1/Cyclin B): > 1000 nM
IC50 (CDK5/p25): > 1000 nM
IC50 (H460): < 1000 nM
IC50 [1]: 7.86 µM
